Results taken from patent US6479487B1, “6, 9-disubstituted 2-[trans-(4-aminocyclohexyl)amino] purines” (Aventis Pharmaceuticals Inc., priority 1998, dated 2002).
Where “and” joins values, the source holds several entries; their conditions need not be identical. Equal values may be shown once. Where a name gives a salt, the structure may show the parent alone. Read-outs that look alike come from different tables or passages of the source.

Key:
[1] = biological target: T1, cdk2/cyclin E (Homo sapiens, UniProt P24941); experiment: Cyclin-Dependent Kinase 2 Assay (cdk2/cyclin E, GST-Rb substrate); format: biochemical; details: recombinant cdk2/cyclin E, 10 μM ATP, 30 min at 30° C., several values in a cell = separate determinations, read-out: CDK-2 Inhibition IC50
T1 construct: made in house; host or cells: insect cells (baculovirus co-infection)
Method: Substrate: GST-Rb as described above for cdk4/cyclin D1
Assay conditions for cdk2/cyclin E were identical to those for cdk4/cyclin D1 including the substrate. The concentration of recombinant cdk2/cyclin E in the assay was 0.1 μg per 100 μl assay. Incubation was for 30 min at 30° C.

[2] = biological target: T2, cdk4/cyclin D1 (Homo sapiens, UniProt P11802); experiment: Cyclin-dependent Kinase 4 Assay (cdk4/cyclin D1, GST-Rb substrate); format: biochemical; details: cdk4/cyclin D1 insect cell lysate, 10 μM ATP, 30 min at 37° C., several values = separate determinations, read-out: CDK4 Inhibition IC50
T2 construct: made in house; host or cells: Sf9 insect cells (Bac-to-Bac baculovirus, pFastBac)
Summary of the method: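 Insect-cell lysate of coexpressed cdk4/cyclin D1 (0.1 μg) acts on GST-Rb (0.5 μg) bound to glutathione-Sepharose, in 50 mM HEPES pH 7.5, 10 mM MgCl2, 1 mM EGTA. Reaction runs 30 min at 37 °C, then is stopped by filtration and TNEN washes. Rb phosphorylation read by scintillation counting; IC50 derived.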

[3] = tested on: MDA-MB-231; experiment: In vitro tumor cell proliferation, MDA-MB-231; format: cell-based, human; details: sulforhodamine B or CyQUANT assay, many values given with an undefined *, read-out: In vitro Tumor Cell Proliferation (IC50, μM) Breast MDA-MB-231
Summary of the method: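 Cells plated overnight at 37 °C, then exposed to drug for 3 days, refed with fresh drug and incubated 4 more days. Read-out by sulforhodamine B staining after TCA fixation; alternatively, CyQUANT after 3-day drug exposure and freezing at −80 °C.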

[4] = tested on: MDA-MB-435; experiment: In vitro tumor cell proliferation, MDA-MB-435; format: cell-based; details: values given with an undefined *, read-out: In vitro Tumor Cell Proliferation (IC50, μM) Breast MDA-MB-435
Summary of the method: (§1)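 Two read-outs were used: sulforhodamine B after 3 + 4 days of drug with re-dosing at medium change, or CyQUANT after 3 days of drug and freezing of plates at −80° C for at least 30 minutes.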

[5] = tested on: HT-29; experiment: In vitro tumor cell proliferation, HT-29; format: cell-based, human; details: many values given with an undefined *, read-out: In vitro Tumor Cell Proliferation (IC50, μM) Colon HT-29
Summary of the method: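 HT-29 cells seeded overnight at 37° C, then exposed to drug for 3 days, refed with fresh drug-containing medium for 4 more days. Proliferation read by sulforhodamine B staining after TCA fixation; alternatively by CyQUANT after freezing plates at −80° C following 3 days' drug exposure.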

[6] = tested on: Colo-205; experiment: In vitro tumor cell proliferation, Colo-205; format: cell-based; details: values given with an undefined *, read-out: In vitro Tumor Cell Proliferation (IC50, μM) Colon Colo-205
Summary of the method: as §1

[7] = tested on: A549; experiment: In vitro tumor cell proliferation, A549; format: cell-based, human; details: many values given with an undefined *, read-out: In vitro Tumor Cell Proliferation (IC50, μM) Lung A549
Summary of the method: as §1

[8] = tested on: DMS-114; experiment: In vitro tumor cell proliferation, DMS-114; format: cell-based, human; details: many values given with an undefined *, read-out: In vitro Tumor Cell Proliferation (IC50, μM) Lung DMS-114
Summary of the method: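 Human small cell lung carcinoma DMS-114 cells plated overnight, then drug-treated for 3 days, medium and drug renewed, and incubated 4 more days. Growth read by sulforhodamine B staining after TCA fixation; alternatively by CyQUANT after 3 days' drug exposure and freezing at −80 °C.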

[9] = tested on: PC-3; experiment: In vitro tumor cell proliferation, PC-3; format: cell-based, human; details: many values given with an undefined *, read-out: In vitro Tumor Cell Proliferation (IC50, μM) Prostate PC-3
Summary of the method: as §1

[10] = tested on: DU145; experiment: In vitro tumor cell proliferation, DU145; format: cell-based, human; details: many values given with an undefined *, read-out: In vitro Tumor Cell Proliferation (IC50, μM) Prostate DU145
Summary of the method: as §1

[11] = Homo sapiens, MDA-MB-231, MDA-MB-231
[12] = Homo sapiens, MDA-MB-435, MDA-MB-435
[13] = Homo sapiens, COLO 205, Colo-205

T2 sequence (P11802 whole entry): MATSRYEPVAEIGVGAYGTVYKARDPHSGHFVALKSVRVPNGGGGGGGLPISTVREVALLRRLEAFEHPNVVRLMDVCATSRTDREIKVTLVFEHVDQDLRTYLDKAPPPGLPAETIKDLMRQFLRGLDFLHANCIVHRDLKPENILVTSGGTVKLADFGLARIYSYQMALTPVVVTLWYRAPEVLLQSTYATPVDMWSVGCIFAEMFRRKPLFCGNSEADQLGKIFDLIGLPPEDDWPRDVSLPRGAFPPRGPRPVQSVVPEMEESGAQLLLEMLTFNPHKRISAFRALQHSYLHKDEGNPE
T2 sequence (P24385 whole entry partner): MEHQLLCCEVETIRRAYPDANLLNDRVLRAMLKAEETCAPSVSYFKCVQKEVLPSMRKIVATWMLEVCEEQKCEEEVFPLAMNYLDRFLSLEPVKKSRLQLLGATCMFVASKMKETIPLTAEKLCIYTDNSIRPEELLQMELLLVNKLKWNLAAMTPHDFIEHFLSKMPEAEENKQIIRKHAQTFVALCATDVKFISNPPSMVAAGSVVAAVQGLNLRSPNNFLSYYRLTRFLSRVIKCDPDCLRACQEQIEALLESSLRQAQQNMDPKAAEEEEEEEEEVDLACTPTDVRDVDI

Row | SMILES | IC50 [1] | IC50 [2] | IC50 [3, 11] | IC50 [4, 12] | IC50 ([4]; MDA-MB-435, dihydrochloride) | IC50 ([5]; HT-29, dihydrochloride) | IC50 ([5]; Homo sapiens, HT-29, HT-29) | IC50 ([6]; Colo-205, dihydrochloride) | IC50 [6, 13] | IC50 ([7]; A549, dihydrochloride) | IC50 ([7]; Homo sapiens, A549, A549) | IC50 ([8]; DMS-114, dihydrochloride) | IC50 ([8]; Homo sapiens, DMS-114, DMS-114) | IC50 ([9]; Homo sapiens, PC-3, PC-3) | IC50 ([9]; PC-3, dihydrochloride) | IC50 ([10]; DU145, dihydrochloride) | IC50 ([10]; Homo sapiens, DU-145, DU145) | other results
1 | CCCCCc1ccc(Nc2nc(N[C@H]3CC[C@H](N)CC3)nc3c2ncn3C2CCCC2)cc1 [Example 23, 2-[Trans-(4-aminocyclohexyl)amino]-6-[(4-pentyl)phenylamino]-9-cyclopentylpurine dihydrochloride] | 2 µM and 0.95 µM and 0.76 µM | 4 µM | 2.7 µM | 3.1 µM | 3.5 µM and 3 µM and 3.3 µM | 2.4 µM and 2.3 µM | 2.5 µM | 2.8 µM and 2.7 µM | 2.9 µM | 2.5 µM | 2.3 µM | 2.1 µM | 2.6 µM | 3.1 µM | 2.7 µM and 2.5 µM and 2.2 µM | 3.2 µM and 3 µM | 3.1 µM | IC50 ([3]; MDA-MB-231, dihydrochloride): 2.6 µM and 2.5 µM
2 | COCCCCNc1nc(N[C@H]2CC[C@H](N)CC2)nc2c1ncn2C1CCCC1 [Example 29, 2-[Trans-(4-aminocyclohexyl)amino]-6-(4-methoxybutylamino)-9-cyclopentylpurine dihydrochloride] | 0.011 µM and 0.04 µM | 1 µM and 0.71 µM | 4.2 µM | 5.9 µM | 6 µM | 4.2 µM | 4.4 µM | 4.6 µM | 2.8 µM | 2.6 µM | 2.9 µM | 3.3 µM | 2.6 µM | 3.2 µM | 3.5 µM | 2.9 µM | 3 µM | IC50 ([3]; MDA-MB-231, dihydrochloride): 3.6 µM
3 | N[C@H]1CC[C@H](Nc2nc(NC3CCN(Cc4ccccc4)CC3)c3ncn(C4CCCC4)c3n2)CC1 [Example 33, 2-[Trans-(4-aminocyclohexyl)amino]-6-[4-(1-benzyl)piperidinylamino]-9-cyclopentylpurine trihydrochloride] | 0.19 µM and 0.14 µM | 0.41 µM | 0.17 µM | 0.26 µM | – | – | 0.19 µM | – | 0.18 µM | – | 0.12 µM | – | 0.19 µM | 0.2 µM | – | – | 0.15 µM | IC50 ([3]; MDA-MB-231, trihydrochloride): 0.21 µM; IC50 ([4]; MDA-MB-435, trihydrochloride): 0.28 µM; IC50 ([5]; HT-29, trihydrochloride): 0.21 µM; IC50 ([8]; DMS-114, trihydrochloride): 0.13 µM; IC50 ([9]; PC-3, trihydrochloride): 0.18 µM
4 | CCCCCCCCCCCCNc1nc(N[C@H]2CC[C@H](N)CC2)nc2c1ncn2C1CCCC1 [Example 36, 2-[Trans-(4-aminocyclohexyl)amino]-6-(dodecylamino)-9-cyclopentylpurine dihydrochloride] | 0.52 µM | 4.5 µM | 3.2 µM | 4.2 µM | 2.2 µM | – | 4 µM | – | 3.1 µM | 3.1 µM | 5.6 µM | 3.1 µM | 3.6 µM | 3.1 µM | 3.8 µM | 3.4 µM | 5.4 µM | –
5 | COc1ccc(CNc2nc(N[C@H]3CC[C@H](N)CC3)nc3c2ncn3C(C)C)cc1 [Example 37, 2-[Trans-(4-aminocyclohexyl)amino]-6-[(4-methoxybenzyl)amino]-9-(2-propyl)purine dihydrochloride] | 0.69 µM | 5.2 µM | 3 µM | 3.4 µM | 3.2 µM and 2.7 µM | 1.8 µM and 2.5 µM | 3.2 µM | 1.6 µM and 1.3 µM | 1.7 µM | – | 1.3 µM | 1.7 µM and 1.5 µM | 1.3 µM | 2.3 µM | 2.8 µM and 2.5 µM | 2.6 µM and 3 µM | 2.7 µM | –
6 | N[C@H]1CC[C@H](Nc2nc(NC3CCN(Cc4cccc(Cl)c4)CC3)c3ncn(C4CCCC4)c3n2)CC1 [Example 42, 2-[Trans-(4-aminocyclohexyl)amino]-6-[4-(1-(3-chlorobenzyl))piperidinylamino]-9-cyclopentylpurine] | 0.2 µM and 0.15 µM | 1 µM and 1.2 µM and 2 µM | 0.24 µM | 0.37 µM | – | – | 0.25 µM | – | 0.19 µM | – | 0.16 µM | – | 0.27 µM | 0.21 µM | – | – | 0.22 µM | IC50 ([3]; MDA-MB-231): 0.3 µM; IC50 ([4]; MDA-MB-435): 0.44 µM; IC50 ([5]; HT-29): 0.28 µM; IC50 ([7]; A549): 0.14 µM; IC50 ([8]; DMS-114): 0.2 µM; IC50 ([9]; PC-3): 0.34 µM; IC50 ([10]; DU145): 0.23 µM
7 | Cc1ccccc1CN1CCC(Nc2nc(N[C@H]3CC[C@H](N)CC3)nc3c2ncn3C2CCCC2)CC1 [Example 44, 2-[Trans-(4-aminocyclohexyl)amino]-6-[4-(1-(2-methylbenzyl))piperidinylamino]-9-cyclopentylpurine] | 0.23 µM and 0.13 µM and 0.34 µM | 2.3 µM | 0.2 µM | 0.24 µM | – | – | 0.22 µM | – | 0.16 µM | – | 0.15 µM | – | 0.28 µM | 0.16 µM | – | – | 0.16 µM | IC50 ([3]; MDA-MB-231): 0.22 µM; IC50 ([4]; MDA-MB-435): 0.27 µM; IC50 ([6]; Colo-205): 0.17 µM; IC50 ([7]; A549): 0.09 µM; IC50 ([8]; DMS-114): 0.21 µM; IC50 ([9]; PC-3): 0.22 µM
